Measured values published in patent US6573271B2, “Method of preventing proliferation of retinal pigment epithelium by retinoic acid receptor agonists” (John Hopkins University School of Medicine, priority 1995, dated 2003).

Experiments:
human RPE cells = assay: [3H]thymidine incorporation / proliferation of cultured human RPE cells; conditions: for effect on RPE cell proliferation, agent alone: FIG. 3, alone
From the text: Primary cultures of human retinal pigment epithelium (RPE) cells were established from eyes obtained from the Old Dominion Eye Bank (Richmond, Va.) or the Eye Bank of Maryland (Baltimore, Md.) using the technique described in P. A. Campochiaro, et al., Invest.
For [3H]thymidine incorporation, RPE cells at passage 3 or 4 were lightly trypsinized and plated in 16-mm wells of 24-well plates. The transfected cells were allowed to attach overnight and then the media containing 5% fetal bovine serum (FBS) were supplemented with retinoids or vehicle alone. Stock solutions (10^−3M) of retinoids were prepared in dimethylsulfoxide (DMSO) and stored as frozen aliquots until used; the highest final concentration of DMSO was 0.1% and was also used for control cultures. The media containing freshly prepared retinoids were changed every three days. At 7 or 10 days 2 μCi/ml of [^3H]thymidine (specific activity, 6.7 Ci/mM; New England Nuclear, Boston, Mass.) was added to the cultures and incorporation was measured as previously described (Leschey, supra).
The potency of retinoid agonists for inhibition of serum stimulated DNA synthesis in human RPE cells was tested. […] The cells were shifted to serum-free media containing the same concentration of retinoid and then pulsed with 10% serum for 18 hours, after which [^3H]thymidine incorporation was measured. Thymidine incorporation for cells grown in control medium was used to calculate the percent inhibition of thymidine incorporation induced by four concentrations of each retinoid (each concentration tested in triplicate) which were then used to generate each line.

[1] = tested on: traction retinal detachment in rabbits; assay: Traction retinal detachment in rabbits after human dermal fibroblasts, subconjunctival lipid microvesicles; type: in vivo, rabbit; conditions: for % Any RD / % Total RD / RD at 7 Days, Partial / RD at 7 Days, Total / RD at 14 Days, Partial / RD at 14 Days, Total / RD at 28 Days, Partial / RD at 28 Days, Total: human dermal fibroblasts
[2] = tested on: traction retinal detachment in rabbits; assay: Traction retinal detachment in rabbits after human dermal fibroblasts, subconjunctival injection
[3] = tested on: traction retinal detachment in rabbits; assay: Traction retinal detachment in rabbits after human RPE cells, intravitreal injection of 168 and 299; type: in vivo, rabbit
[4] = tested on: traction retinal detachment in rabbits; assay: Traction retinal detachment in rabbits after human dermal fibroblasts, intravitreous lipid microvesicles; conditions: for % Any RD / % Total RD / RD at 7 Days, Partial / RD at 7 Days, Total / RD at 14 Days, Partial / RD at 14 Days, Total / RD at 28 Days, Partial / RD at 28 Days, Total: human dermal fibroblasts
From the text: In this experiment the retinoid was incorporated into lipid microvesicles utilizing standard techniques.

[5] = tested on: traction retinal detachment in rabbits; assay: Traction retinal detachment in rabbits after human RPE cells, subconjunctival injection; type: in vivo, rabbit; conditions: subconjunctival 0.3 mg once a day for five days
From the text: Due to the toxicity of certain RAR agonists and because the effects of retinoids are delayed in onset and reversible, methods for sustained release of the retinoids were investigated. […] The therapeutic effect of the RAR specific agonists was greater than that of RA, which is an agonist for both RXRs and RARs. There were no signs of any toxicity to the retina.

[6] = tested on: rabbit cell injection model of PVR; assay: Rabbit cell injection model of PVR (RPE cells), intravitreous injection of retinoids; type: in vivo; conditions: for Any RD (%) / Total RD (%): 28 Days
Protocol: Briefly, pigmented rabbits were anesthetized with a subcutaneous injection of 5 mg/kg of xylazine and 25 mg/kg of ketamine, and the pupil of one eye was dilated with 2½% phenylephrine. Under direct observation 5×10^5 RPE cells were injected into the vitreous cavity just anterior to the optic nerve. […] .
Rabbits were examined by indirect ophthalmoscopy on days 7, 14 and 28 and traction retinal detachments were graded. […] . The localized clouds decreased in size and cleared over 2 to 3 weeks. There were no visible changes in the retina. […] .
It was felt that the hair loss and possibly the loss of appetite and death were due to systemic toxicity from drug that had gotten out of the eye. […] . None of the rabbits experienced hair loss and none died; their appetites appeared to be normal.

RPE cells = assay: RPE cell morphology after 10 days in retinoid; type: cell-based, human; conditions: 1 μm, 5% serum, on plastic
RXRα = biological target: T1, RXRα (Homo sapiens, UniProt P19793); assay: Transactivation, ER/RXR-α hybrid receptor + ERE-CAT reporter cotransfected in HeLa cells
T1 sequence (P19793 227-458 limits assumed): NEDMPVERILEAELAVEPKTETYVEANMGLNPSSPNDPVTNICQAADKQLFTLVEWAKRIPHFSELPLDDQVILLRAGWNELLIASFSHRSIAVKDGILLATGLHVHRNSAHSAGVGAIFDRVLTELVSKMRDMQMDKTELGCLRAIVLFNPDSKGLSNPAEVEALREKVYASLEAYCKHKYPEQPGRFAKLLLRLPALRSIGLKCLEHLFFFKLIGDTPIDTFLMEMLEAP

retinas of the rabbits = assay: Ocular toxicity after single intravitreous injection, histopathology of retina; type: in vivo, rabbit; conditions: single intravitreous injection of 100 μg, two weeks after injection
From the text: The rabbits were killed two weeks after injection.

[7] = Homo sapiens, RPE, read-out: Percent Inhibition of [3H]thymidine incorporation in RPE cells
[8] = 50 μg, single intravitreous injection
[9] = 100 μg intravitreous, two injections (day 1 and day 2 after cell injection)
[10] = 100 μg intravitreous, two injections

CC1=C(/C=C/C(C)=C/C=C/C(C)=C\C(=O)O)C(C)(C)CCC1 [13-cis RA, 13-cis-retinoic acid, reference compound]
IC50 (human RPE cells; read-out: RPE 148 IC50 (50% inhibition of RPE cell growth relative to mock treated RPE cells), measured as in Example 2): 0.03 µM

CCOC(=O)c1ccc(C#Cc2ccc3c(c2)C(C)(C)CCS3)nc1 [Compound 168, ethyl 6-[2-(4,4-dimethylthiochroman-6-yl)ethynyl]nicotinate]
inhibition of tractional retinal detachment [1]: substantially more effective at inhibiting tractional retinal detachment | % Any RD [1]: 33% | % Total RD [1]: 33% | RD at 7 Days, Partial [1]: 0 | RD at 7 Days, Total [1]: 0 | RD at 14 Days, Partial [1]: 1 | RD at 14 Days, Total [1]: 0 | RD at 28 Days, Partial [1]: 0 | RD at 28 Days, Total [1]: 2 | % Any RD [2]: 60% | % Total RD [2]: 20% | RD at 7 Days, Partial [2]: 0 | RD at 7 Days, Total [2]: 0 | RD at 14 Days, Partial [2]: 0 | RD at 14 Days, Total [2]: 0 | RD at 28 Days, Partial [2]: 4 | RD at 28 Days, Total [2]: 2 | effect on retinal detachments [2]: decreased the number of retinal detachments and slowed the rate at which they developed | % Any RD [3]: 80% | % Total RD [3]: 8% | RD at 7 Days, Partial [3]: 1 | RD at 7 Days, Total [3]: 0 | RD at 14 Days, Partial [3]: 1 | RD at 14 Days, Total [3]: 0 | RD at 28 Days, Partial [3]: 7 | RD at 28 Days, Total [3]: 1 | prevention of traction retinal detachment [4]: very effective in preventing traction retinal detachment | % Any RD [4]: 29% | % Total RD [4]: 29% | RD at 7 Days, Partial [4]: 0 | RD at 7 Days, Total [4]: 0 | RD at 14 Days, Partial [4]: 0 | RD at 14 Days, Total [4]: 0 | RD at 28 Days, Partial [4]: 0 | RD at 28 Days, Total [4]: 2 | % Any RD [5]: 16% | % Total RD [5]: 16% | RD at 7 Days, Partial [5]: 0 | RD at 7 Days, Total [5]: 0 | RD at 14 Days, Partial [5]: 0 | RD at 14 Days, Total [5]: 0 | RD at 28 Days, Partial [5]: 1 | RD at 28 Days, Total [5]: 0

C/C(=C\c1ccc(C(=O)O)cc1)c1ccc2c(c1)C(C)(C)CCC2(C)C [Compound 183, p-[(E)-2-(5,6,7,8-tetrahydro-5,5,8,8-tetramethyl-2-naphthyl)propenyl]-benzoic acid]
inhibition at 0.05 µM (human RPE cells; [7]): 76.7% | inhibition at 0.1 µM (human RPE cells; [7]): 98.6% | inhibition at 1 µM (human RPE cells; [7]): 98.8% | inhibition of RPE cell proliferation (human RPE cells; comment on Table 3): effective inhibitors of RPE cell proliferation | Partial RD at 14 Days (number of eyes) [6, 8]: 1 | Partial RD at 28 Days (number of eyes) [6, 8]: 1 | Total RD at 14 Days (number of eyes) [6, 8]: 2 | Total RD at 28 Days (number of eyes) [6, 8]: 2 | Any RD (%) [6, 8]: 33+ % | Total RD (%) [6, 8]: 22% | Partial RD at 14 Days (number of eyes) [6, 9]: 0 | Partial RD at 28 Days (number of eyes) [6, 9]: 0 | Total RD at 14 Days (number of eyes) [6, 9]: 0 | Total RD at 28 Days (number of eyes) [6, 9]: 0 | Any RD (%) [6, 10]: 0++ % | Total RD (%) [6, 10]: 0% | frequency and severity of traction retinal detachments versus vehicle ([6]; initial group, intravitreous injections of 100 μg): None of these rabbits developed retinal detachments | frequency and severity of retinal detachments versus control ([6]; single intravitreous injection one day after RPE cell injection): fewer (p(0.05) and less severe retinal detachments | deaths before completion of the 28 day observation period ([6]; two intravitreous injections of 100 μg, five rabbits): two rabbits died | RPE cell morphology / cell overgrowth (RPE cells): prevented cell overgrowth | EC50 (RXRα): 15 µM | photoreceptor degeneration, histopathology (retinas of the rabbits): Occasional focal areas of photoreceptor degeneration were seen in one eye

CC1(C)CCOc2ccc(C#Cc3ccc(C(=O)O)cn3)cc21 [Compound 299, 6-[2-(4,4-dimethylchroman-6-yl)ethynyl]nicotinic acid]
% Any RD [1]: 63% | % Total RD [1]: 50% | RD at 7 Days, Partial [1]: 0 | RD at 7 Days, Total [1]: 0 | RD at 14 Days, Partial [1]: 0 | RD at 14 Days, Total [1]: 1 | RD at 28 Days, Partial [1]: 1 | RD at 28 Days, Total [1]: 4 | % Any RD [2]: 40% | % Total RD [2]: 0% | RD at 7 Days, Partial [2]: 0 | RD at 7 Days, Total [2]: 0 | RD at 14 Days, Partial [2]: 0 | RD at 14 Days, Total [2]: 0 | RD at 28 Days, Partial [2]: 4 | RD at 28 Days, Total [2]: 0 | effect on retinal detachments [2]: decreased the number of retinal detachments and slowed the rate at which they developed | % Any RD [3]: 80% | % Total RD [3]: 40% | RD at 7 Days, Partial [3]: 0 | RD at 7 Days, Total [3]: 0 | RD at 14 Days, Partial [3]: 1 | RD at 14 Days, Total [3]: 1 | RD at 28 Days, Partial [3]: 4 | RD at 28 Days, Total [3]: 4 | prevention of traction retinal detachment [4]: not effective | % Any RD [4]: 100% | % Total RD [4]: 100% | RD at 7 Days, Partial [4]: 0 | RD at 7 Days, Total [4]: 0 | RD at 14 Days, Partial [4]: 0 | RD at 14 Days, Total [4]: 0 | RD at 28 Days, Partial [4]: 0 | RD at 28 Days, Total [4]: 3 | % Any RD [5]: 0% | % Total RD [5]: 0% | RD at 7 Days, Partial [5]: 0 | RD at 7 Days, Total [5]: 0 | RD at 14 Days, Partial [5]: 0 | RD at 14 Days, Total [5]: 0 | RD at 28 Days, Partial [5]: 0 | RD at 28 Days, Total [5]: 0

C=C1/C(=C\C=C2/CCC[C@]3(C)[C@@H]([C@H](C)CCCC(C)(C)O)CC[C@@H]23)C[C@@H](O)C[C@@H]1O [Compound D3, 1,25-dihydroxyvitamin D3, reference compound]
effect on RPE cell proliferation, agent alone (human RPE cells): did not

N[C@@H](Cc1cc(I)c(Oc2ccc(O)c(I)c2)c(I)c1)C(=O)O [Compound T3, reference compound]
effect on RPE cell proliferation, agent alone (human RPE cells): did not
